This is an account of results in PMC3488320, “Indirubin derivative E804 inhibits angiogenesis” (BMC Cancer, 2012).

In general, IC50 refers to the concentration at which inhibition is half-maximal. Lower therefore signals greater potency.

The target in the test is T1, VEGFR-2 (Homo sapiens, UniProt P35968).
T1 construct: gene KDR
The test can be described thus: HTScan VEGFR-2 kinase assay kit (purified kinase, peptide substrate, pTyr-100 ELISA). In kind it is biochemical.

T1 sequence (P35968 20-1356): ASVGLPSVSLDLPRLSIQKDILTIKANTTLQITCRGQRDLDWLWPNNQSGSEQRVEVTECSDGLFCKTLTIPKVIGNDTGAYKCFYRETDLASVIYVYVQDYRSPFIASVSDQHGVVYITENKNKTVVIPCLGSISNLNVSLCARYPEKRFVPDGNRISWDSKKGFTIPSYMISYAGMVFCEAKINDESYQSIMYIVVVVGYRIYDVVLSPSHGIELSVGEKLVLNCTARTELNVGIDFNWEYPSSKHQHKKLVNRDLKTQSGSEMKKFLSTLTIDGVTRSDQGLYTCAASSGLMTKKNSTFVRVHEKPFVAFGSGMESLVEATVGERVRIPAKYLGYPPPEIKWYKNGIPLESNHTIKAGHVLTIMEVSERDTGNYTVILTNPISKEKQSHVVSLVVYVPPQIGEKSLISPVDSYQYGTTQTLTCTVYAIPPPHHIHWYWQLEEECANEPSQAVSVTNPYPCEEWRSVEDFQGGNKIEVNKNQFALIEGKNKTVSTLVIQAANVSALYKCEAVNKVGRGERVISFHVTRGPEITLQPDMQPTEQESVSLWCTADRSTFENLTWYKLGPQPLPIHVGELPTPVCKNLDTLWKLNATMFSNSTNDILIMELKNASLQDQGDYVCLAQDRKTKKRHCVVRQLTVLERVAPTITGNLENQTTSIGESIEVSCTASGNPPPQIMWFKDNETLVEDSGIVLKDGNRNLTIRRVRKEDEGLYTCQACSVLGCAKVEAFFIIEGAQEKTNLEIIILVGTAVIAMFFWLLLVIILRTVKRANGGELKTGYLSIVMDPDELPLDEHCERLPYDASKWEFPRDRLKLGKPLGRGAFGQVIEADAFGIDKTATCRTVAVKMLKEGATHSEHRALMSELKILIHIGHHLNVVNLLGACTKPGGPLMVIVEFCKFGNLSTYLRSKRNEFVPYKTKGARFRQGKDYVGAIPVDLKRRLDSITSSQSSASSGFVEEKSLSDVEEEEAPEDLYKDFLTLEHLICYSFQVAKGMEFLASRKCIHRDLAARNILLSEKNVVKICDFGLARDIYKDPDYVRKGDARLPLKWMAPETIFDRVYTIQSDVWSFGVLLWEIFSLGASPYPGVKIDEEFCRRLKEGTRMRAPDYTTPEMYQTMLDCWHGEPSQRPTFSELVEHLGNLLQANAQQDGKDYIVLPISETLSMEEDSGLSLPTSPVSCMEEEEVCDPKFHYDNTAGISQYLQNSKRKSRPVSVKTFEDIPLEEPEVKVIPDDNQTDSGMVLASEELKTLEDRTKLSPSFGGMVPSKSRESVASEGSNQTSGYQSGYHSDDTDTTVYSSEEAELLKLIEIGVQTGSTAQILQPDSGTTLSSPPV

In turn, `O=C1Nc2ccccc2C1=C1Nc2ccccc2C1=NOCC(O)CO` (stereo not shown) [IDR-E804] returned an IC50 of 950 nM.
